According to patent publication US8637496B2, “Compounds having a monogalactosyldiacylglycerol synthase inhibitory activity as herbicide or algaecide, herbicide and algaecide compositions” (Commissariat a l'Energie Atomique, priority 2007, dated 2014):
Where two headings read alike, the source gives them in different places.

Experiments:
[1] = test system: Chlamydomonas reinhardtii; assay: Chlamydomonas reinhardtii growth assay; format: cell-based; conditions: day three (d=3)
Method: An axenic suspension of Chlamydomonas reinhardtii (10 μl) is introduced in a liquid TAP medium (Tris-Acetate-Phosphate medium, as described by Rochaix et al., (The Molecular Biology of Chloroplasts and Mitochondria in Chlamydomeonas; Advances in Photosynthesis, (1998) Vol. 7. Kluwer Academic Publishers, Dordrecht, The Netherlands) with or without compound according to the invention. The compounds to be tested have been solubilized in dimethylsulfoxide (DMSO) and supplied directly in the growth medium, at concentrations ranging from 0 to 200 μM. Final concentration of DMSO in medium was 10%. Chlamydomonas suspensions were then grown at 20° C., under continuous light (50 μE.m^−2.s^−1). Growth was assessed by counting the algae in a 40 μl aliquot using a Malassez cell and examining the cell vitality by standard microscopic methods.
Control herbicide is Triclosan.

[2] = molecular target: T1, MGDG synthase in isolated spinach chloroplast envelope membranes (Spinacia oleracea, UniProt Q9SM44); assay: MGDG synthase activity in envelope membrane fractions isolated from spinach chloroplasts; format: biochemical
T1 construct: envelope membranes purified from the lysate by sucrose centrifugation gradient; from tissue; host or cells: envelope membranes of chloroplasts from spinach leaves
T1 sequence (Q9SM44 99-522): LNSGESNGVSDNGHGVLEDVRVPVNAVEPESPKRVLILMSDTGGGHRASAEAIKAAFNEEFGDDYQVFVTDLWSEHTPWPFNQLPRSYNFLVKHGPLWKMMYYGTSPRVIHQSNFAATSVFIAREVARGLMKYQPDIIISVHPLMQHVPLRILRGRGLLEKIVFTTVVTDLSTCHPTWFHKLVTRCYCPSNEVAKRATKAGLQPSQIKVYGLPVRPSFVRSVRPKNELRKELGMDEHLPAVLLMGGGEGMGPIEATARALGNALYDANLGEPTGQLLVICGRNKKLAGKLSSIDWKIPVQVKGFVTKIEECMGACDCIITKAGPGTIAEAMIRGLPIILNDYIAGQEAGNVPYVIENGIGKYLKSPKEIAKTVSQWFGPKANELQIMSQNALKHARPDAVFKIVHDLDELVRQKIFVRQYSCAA
How it was run: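 Envelope membranes purified from Percoll-isolated spinach chloroplasts by hypotonic lysis and sucrose gradient; MGDG synthase activity measured per published protocol.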

[3] = molecular target: T2, spinach recombinant MGDG synthase (soMGD) (Spinacia oleracea, UniProt Q9SM44); assay: MGDG synthase enzymatic assay of recombinant spinach MGD protein in mixed micelles; format: biochemical; conditions: recombinant enzyme expressed in E. coli, FIG. 2, read-out: IC50, inhibition of spinach recombinant MGDG synthase (soMGD) activity
T2 construct: The cDNA fragments corresponding to the mature form of spinach MGDG synthase, soMGD1; made in house; host or cells: Escherichia coli BL21-DE3, pET-3a (NdeI-BamHI)
T2 sequence (Q9SM44 99-522): T1 sequence (Q9SM44 99-522)
Excerpt: The cDNA fragments corresponding to the mature form of spinach MGDG synthase, soMGD1 [accession number CAB56218], and from the three isoforms that are present in Arabidopsis, i.e. atMGD1 [accession number BAB12042], atMGD2 [accession number T52269] and atMGD3 [accession number BAB12041] were inserted into the pET-3a expression vector from Novagen, as described by Miège C. et al., Eur. J. Biochem, 1999, 265, 990-1001 and Awai K. et al., Proc. Natl. Acad. Sci. U.S.A., 2001, 98, 10960-10965. All MGD sequences used in this study were inserted in NdeI-BamHI cloning site of the pET-3a vector. Induction of recombinant proteins was achieved following the pET expression system procedure. Isolated colonies of transfected Escherichia coli (BL21-DE3) were inoculated in LB medium (2.5 ml, 100 μg/ml carbenicillin) and grown at 37° C. When OD600 reached 0.5, the cell suspension was transferred to 15 ml of LB medium ([…] carbenicillin) and grown at 37° C. until OD600 reached 0.5. […]
The MGDG synthase enzymatic assay was achieved as described by Maréchal E. et al., J. Biol. Chem., 1995, 270, 5714-5722. […] J. Biochem. Physiol., 1959, 37, 911-917 and the radioactivity of the [^14C]-labelled MGDG ultimately produced, determined by liquid scintillation counting. […]

[4] = Table 1, obtained in the same manner as FIG. 4, read-out: Inhibitory effect on MGDG synthesis in isolated spinach chloroplast envelope membranes

IC50 [3] [µM]	IC50 ([2]; spinach chloroplast envelope membranes, FIG. 4, read-out: IC50, MGDG synthase activity in envelope membranes that surround chloroplasts) [µM]	Compound	morphology of Chlamydomonas when incubated with compound (FIG. 6) [1]	IC50 [2, 4] [µM]
		O=C(OC1CN(C(c2ccccc2)c2ccccc2)C1)N1CCC(n2c(=O)[nH]c3ccccc32)CC1 [Compound 13, 1-benzhydrylazetidin-3-yl 4-(1,2-dihydro-2-oxobenzo[d]imidazol-3-yl)piperidine-1-carboxylate]	fails to divide	100 to 500
		O=c1[nH]c2ccccc2n1C1CCN(C(=S)OCCOCc2ccccc2)CC1 [Compound 20, O-2-(benzyloxy)ethyl 4-(1,2-dihydro-2-oxobenzo[d]imidazol-3-yl)piperidine-1-carbothioate]	fails to divide	100 to 500
100		O=C(OC[C@H](Cc1ccccc1)N(Cc1ccccc1)Cc1ccccc1)N1CCC(n2c(=O)[nH]c3ccccc32)CC1 [Compound 8, (S)-2-(dibenzylamino)-3-phenylpropyl 4-(1,2-dihydro-2-oxobenzo[d]imidazol-3-yl)piperidine-1-carboxylate]		10
45	10	C[C@@H](COC(=O)N1CCC(n2c(=O)[nH]c3ccccc32)CC1)N(Cc1ccccc1)Cc1ccccc1 [Compound 7, (S)-2-(dibenzylamino)propyl 4-(1,2-dihydro-2-oxobenzo[d]imidazol-3-yl)piperidine-1-carboxylate]		45
		O=C(OCCN(Cc1ccccc1)Cc1ccccc1)N1CCC(n2c(=O)[nH]c3ccccc32)CC1 [Compound 11, 2-(dibenzylamino)ethyl 4-(1,2-dihydro-2-oxobenzo[d]imidazol-3-yl)piperidine-1-carboxylate]	fails to divide	15
